# The source made the active and inactive calls. The rule behind the calls is not given here.
# Biological target: T1, Epidermal growth factor receptor (Homo sapiens, UniProt P00533)
# Test: Inhibition of EGFR by Z-LYTE assay
# T1 sequence (P00533 whole entry): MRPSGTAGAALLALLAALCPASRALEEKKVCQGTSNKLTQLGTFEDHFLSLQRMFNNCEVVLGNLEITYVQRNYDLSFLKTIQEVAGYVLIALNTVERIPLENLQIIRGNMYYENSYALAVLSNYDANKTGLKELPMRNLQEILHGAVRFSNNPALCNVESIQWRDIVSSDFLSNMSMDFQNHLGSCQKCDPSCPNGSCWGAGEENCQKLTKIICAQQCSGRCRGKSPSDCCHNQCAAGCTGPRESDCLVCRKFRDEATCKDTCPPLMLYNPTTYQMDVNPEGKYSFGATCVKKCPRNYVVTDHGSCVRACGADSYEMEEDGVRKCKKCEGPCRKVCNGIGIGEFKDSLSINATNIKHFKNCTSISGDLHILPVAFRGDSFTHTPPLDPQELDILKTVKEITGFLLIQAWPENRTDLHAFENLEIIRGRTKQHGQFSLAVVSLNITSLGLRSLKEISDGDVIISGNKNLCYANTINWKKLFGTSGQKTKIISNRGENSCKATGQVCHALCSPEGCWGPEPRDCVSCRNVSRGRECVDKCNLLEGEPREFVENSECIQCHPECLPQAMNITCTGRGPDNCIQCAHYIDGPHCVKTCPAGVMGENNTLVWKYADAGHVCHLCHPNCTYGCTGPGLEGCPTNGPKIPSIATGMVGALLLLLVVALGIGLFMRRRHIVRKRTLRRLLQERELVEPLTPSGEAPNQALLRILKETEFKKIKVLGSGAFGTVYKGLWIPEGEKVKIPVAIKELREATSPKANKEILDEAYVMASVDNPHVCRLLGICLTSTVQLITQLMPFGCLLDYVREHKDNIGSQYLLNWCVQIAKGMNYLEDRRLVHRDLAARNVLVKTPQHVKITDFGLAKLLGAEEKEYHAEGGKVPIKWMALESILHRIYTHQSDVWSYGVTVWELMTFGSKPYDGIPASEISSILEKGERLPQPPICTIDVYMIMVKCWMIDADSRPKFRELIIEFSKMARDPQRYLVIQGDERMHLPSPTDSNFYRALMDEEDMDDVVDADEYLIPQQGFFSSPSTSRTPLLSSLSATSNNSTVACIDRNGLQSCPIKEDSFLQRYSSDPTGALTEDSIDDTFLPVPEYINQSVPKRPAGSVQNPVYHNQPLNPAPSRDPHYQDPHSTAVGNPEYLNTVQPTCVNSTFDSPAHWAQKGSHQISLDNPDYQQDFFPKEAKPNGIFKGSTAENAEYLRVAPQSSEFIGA
row,Compound,IC50
1,C[C@@H](Nc1ncnc2[nH]c(-c3ccc(C#N)cc3)cc12)c1ccc(F)cc1,14 nM
2,Oc1ccc(-c2cc3c(NCc4ccccc4)ncnc3[nH]2)cc1,3.3 nM
3,C[C@@H](Nc1ncnc2[nH]c(-c3ccc(F)cc3)cc12)c1ccccc1,6.6 nM
4,C[C@@H](Nc1ncnc2[nH]c(-c3ccc(O)cc3)cc12)c1ccccc1F,8 nM
5,C[C@@H](Nc1ncnc2[nH]c(-c3ccc(C#N)cc3)cc12)c1ccccc1,12 nM
6,Cc1ccc([C@@H](C)Nc2ncnc3[nH]c(-c4ccc(O)cc4)cc23)cc1,450 nM
7,C[C@@H](Nc1ncnc2[nH]c(-c3ccc(O)cc3)cc12)c1ccc(Br)cc1,62 nM
8,Cc1cccc(C(C)Nc2ncnc3[nH]c(-c4ccc(O)cc4)cc23)c1 (racemic),95 nM
9,C[C@@H](Nc1ncnc2[nH]c(-c3ccc(O)cc3)cc12)c1cccc(F)c1,9 nM
10,C[C@@H](Nc1ncnc2[nH]c(-c3ccc(Br)cc3)cc12)c1ccccc1,63 nM
11,Oc1ccc(-c2cc3c(NCc4ccc(F)cc4)ncnc3[nH]2)cc1,26 nM
12,Oc1ccc(-c2cc3c(NCc4cccc(F)c4)ncnc3[nH]2)cc1,52 nM
13,Cc1ccccc1C(C)Nc1ncnc2[nH]c(-c3ccc(O)cc3)cc12 (racemic),17 nM
14,C[C@@H](Nc1ncnc2[nH]c(-c3ccccc3)cc12)c1ccc(F)cc1,33 nM
15,C[C@@H](Nc1ncnc2[nH]c(-c3ccc(O)cc3)cc12)c1ccc(F)cc1,3.8 nM
16,Oc1ccc(-c2cc3c(NCc4ccccc4F)ncnc3[nH]2)cc1,45 nM
17,C[C@@H](Nc1nc[nH]c2nc(-c3ccccc3)cc1-2)c1ccccc1,3.3 nM
18,CC[C@@H](Nc1ncnc2[nH]c(-c3ccc(O)cc3)cc12)c1ccccc1,4 nM
19,CC(Nc1ncnc2[nH]c(-c3ccc(O)cc3)cc12)c1ccc(C(F)(F)F)cc1 (racemic),4610 nM
20,C[C@@H](Nc1ncnc2[nH]c(-c3ccc(F)cc3)cc12)c1ccc(F)cc1,27 nM
21,C[C@@H](Nc1ncnc2[nH]c(-c3ccc(Br)cc3)cc12)c1ccc(F)cc1,29 nM
22,CC(Nc1ncnc2[nH]c(-c3ccc(O)cc3)cc12)c1cccc2ccccc12 (racemic),1010 nM
23,COc1ccc(-c2cc3c(N[C@H](C)c4ccccc4)ncnc3[nH]2)cc1,4.7 nM
24,C[C@@H](Nc1ncnc2[nH]c(-c3ccc(O)cc3)cc12)c1ccccc1,3.7 nM

# Biological target: T1, Epidermal growth factor receptor
# Test: Inhibition of EGF-induced EGFR internalization in human HeLa cells assessed as subcellular localization of receptor at 500 nM measured after 15 to 20 mins post receptor activation by immunostaining-based confocal microscopy analysis
# Assay type: cell-based
row,Compound,inhibition
1,C[C@@H](Nc1ncnc2[nH]c(-c3ccc(O)cc3)cc12)c1ccccc1,inactive
